Patent US20040023884A1, “Biologically active peptides from functional domains of bactericidal/permeability-increasing protein and uses thereof” (priority 1993, published 2004)
Ends that are not written are not given here.

Columns and labels:
[1] = system: E. coli 0111:B4 (smooth) bacteria; assay: Radial diffusion bactericidal assay, E. coli 0111:B4; format: cell-based; conditions: for pmol added to well to achieve a 30 mm^2 bactericidal zone, E. coli O111:B4: radial diffusion, PROBIT analysis, E. coli O111:B4 (smooth)
RAW 264.7 cells = assay: LPS neutralization cellular proliferation assay, RAW 264.7 cells; format: cell-based, mouse
Description: In this assay, mouse RAW 264.7 cells (ATCC Accession No. T1B71), maintained in RPMI 1640 media (GIBCO), supplemented with 10 mM HEPES buffer (pH 7.4), 2 mM L-glutamine, penicillin (100U/mL), streptomcin (100 μg/mL), 0.075% sodium bicarbonate, […] 2-mercaptoethanol and 10% fetal bovine serum (Hyclone, Inc., Logan, Utah), were first induced by incubation in the presence of 50U/mL recombinant mouse y-interferon (Genzyme, Cambridge, Mass.) for 24 h prior to assay. Induced cells were then mechanically collected and centrifuged at 500×g at 4° C. and then resuspended in 50 mL RPMI 1640 media (without supplements), re-centrifuged and again resuspended in RPMI 1640 media (without supplements). The cells were counted and their concentration adjusted to 2×10^5 cells/mL and 100 μL aliquots were added to each well of a 96-well microtitre plate. The cells were then incubated for about 15 hours with E. coli O113 LPS (Control Standard. Assoc. of Cape Cod. Woods Hole, Mass.), which was added in 100 μL/well aliquots at a concentration of […] in serum-free RPMI 1640 media (this concentration being the result of titration experiments in which LPS concentration was varied between 50 pg/mL and 100 ng/mL). This incubation was performed in the absence or presence of BPI functional domain peptides in varying concentrations between 25 ng/mL and 50 μg/mL. Recombinant human BPI was used as a positive control at a concentration of 1 μg/mL. Cell proliferation was quantitatively measured by the addition of 1 μCi/well [^3H]-thymidine 5 hours after the time of initiation of the assay. After the 15-hour incubation, labeled cells were harvested onto glass fiber filters with a cell harvester (Inotech Biosystems, EQ-384, Sample Processing and Filter Counting System, Lansing, Mich.).

Staphylococcus aureus = assay: Radial diffusion bactericidal assay, Staphylococcus aureus; format: cell-based; conditions: S. aureus; for pmol added to well to achieve a 30 mm^2 bactericidal zone, S. aureus: radial diffusion, PROBIT analysis
C. albicans = assay: Radial diffusion fungicidal assay, Candida albicans; format: cell-based; conditions: radial diffusion
[2] = 3H-heparin binding assay (affinity and capacity); conditions: for Heparin Capacity: heparin bound at saturation; for Kd: read-out: Heparin Affinity; for cpm ^3H-Heparin bound: 100 picomoles of each fragment per well, saturating 3H-heparin 20 μg/mL, mean of duplicate wells ± range
Outline: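 Bound 3H-heparin was counted by liquid scintillation after 1 h incubation at 4 °C with fragments immobilised on PVDF-bottomed wells, then washing in blocking buffer. Signal was corrected for BSA-related background, and varying amounts of rBPI23 were used as positive control.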

[3] = system: rough mutant E. coli J5 bacteria; assay: Radial diffusion bactericidal assay, E. coli J5; format: cell-based; conditions: for pmol added to well to achieve a 30 mm^2 bactericidal zone, E. coli J5: radial diffusion, PROBIT analysis, E. coli J5 (rough)
Outline: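 Wells received 5 or 10 μL of BPI fragment, pre-incubated 3 h at 37 °C. The underlayer agarose carried washed log-phase organisms at 4×10^6 CFU/mL.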

Candida albicans = format: cell-based
E. coli 0113 LPS = assay: Limulus Amoebocyte Lysate (LAL) inhibition assay; format: biochemical
Description: BPI proteolytic fragments produced according to Example 1 were subjected to a Limulus Amoebocyte Lysate (LAL) inhibition assay to determine LPS binding properties of these fragments. Specifically, each of the fragments were mixed in Eppendorf tubes with a fixed concentration of E. coli 0113 LPS (4 ng/mL final concentration) and incubated at 37° C. for 3 hours with occasional shaking. Addition controls comprising rBPI23 at 0.05 μg/mL were also tested. Following incubation, 360 μL of Dulbecco's phosphate buffered saline (D-PBS; Grand Island Biological Co. (GIBCO), Long Island, N.Y.) were added per tube to obtain an LPS concentration of 200 pg/mL for the LAL assay. Each sample was then transferred into Immulon II strips (Dynatech, Chantilly, Va.) in volumes of 50 μl per well.
Limulus amoebocyte Lysate (Quantitative Chromogenic LAL kit, Whitaker Bioproducts, Inc., Walkersville, Md.) was added at 50 μL per well and the wells were incubated at room temperature for 25 minutes. Chromogenic substrate was then added at a volume of 100 μL per well and was well mixed. After incubation for 20 to 30 minutes at room temperature, the reaction was stopped with addition of 100 μL of 25% (v/v) acetic acid. Optical density at 405 nm was then measured in a multiplate reader (Model Vmax, […], Menlo Park, Calif.) with the results shown in FIG. 2 in terms of percent inhibition of LPS. In this Figure, the filled circle represents rBPI23; the open circle represents Asp-N fragment A3; the x represents Asp-N fragment A2, the filled square represents Asp-N fragment A4; the filled triangle represents Asp-N fragment A1A2; the open square represents Asp-N fragment A6a; the small open triangle represents CNBr fragment C3; and the small filled square represents CNBr fragment C1/C5.

| Molecule | pmol added to well to achieve a 30 mm^2 bactericidal zone, E. coli O111:B4 [1] | EC50 (peptide concentration at which the growth inhibitory effect of LPS was reversed by 50%) (RAW 264.7 cells) [µg/mL] | pmol added to well to achieve a 30 mm^2 bactericidal zone, S. aureus (Staphylococcus aureus) | C. albicans: pmol required for 30 mm^2 zone (C. albicans) [pmol] | Heparin Capacity [2] [ng] | Kd [2] [nM] | pmol added to well to achieve a 30 mm^2 bactericidal zone, E. coli J5 [3] | IC50 (peptide concentration at which RAW cell growth was inhibited by 50%) (RAW 264.7 cells) [µg/mL] | fold lower bactericidal activity than BPI.30 ([1]; E. coli 0111:B4) [fold] | fold lower bactericidal activity than BPI.30 (Staphylococcus aureus) [fold] | fold increase in heparin affinity vs BPI.30 [2] [fold] | fold reduction in heparin binding capacity vs BPI.30 [2] [fold] | fold lower bactericidal activity than BPI.30 ([3]; E. coli J5) [fold] | MIC C. alb (Candida albicans) [µg/mL] | IC50 relative to intact rBPI23 (fold higher) (E. coli 0113 LPS) | IC50 (E. coli 0113 LPS; read-out: IC50 of inhibition of the LPS-induced LAL reaction) [nM] | cpm ^3H-Heparin bound [2] | LAL / LPS inhibition activity (in words) (E. coli 0113 LPS) | concentration giving complete inhibition of the LPS-induced LAL reaction (E. coli 0113 LPS) [nM] |
| --- | --- | --- | --- | --- | --- | --- | --- | --- | --- | --- | --- | --- | --- | --- | --- | --- | --- | --- | --- |
| KSKVGWLILLFHKK [BPI.86] | b (no detectable activity up to 5 μg/well) | 0.13 ± 0.04 | 459,138.55 pmol | >2048.45 | 208.4 | 383 | 1,519.64 pmol |  |  |  |  |  |  |  |  |  |  |  |  |
| KSKVGWLIQLFHKF [BPI.96] | 8,691.85 pmol | 1.6 ± 0.2 | 91,585.37 pmol | 1856.08 | 203.8 | 469 | 378.33 pmol | 18.8 ± 0.8 |  |  |  |  |  |  |  |  |  |  |  |
| KSKVGWLIQLFHKKKWKAQKRFLK [BPI.74] | 30,610.36 pmol | 2.7 ± 0.3 | 4,290.18 pmol | >2148.21 | 207.3 | 218 | 731.94 pmol | 18.8 ± 0.8 | 50 | 3.5 | 2 | 2 | 10 |  |  |  |  |  |  |
| KSKVGWLIQLWHKK [BPI.82] | 3,681.30 pmol | 0.8 ± 0.1 | 11,027.00 pmol | 518.43 | 163.1 | 427 | 171.32 pmol | 18.8 ± 0.8 |  |  |  |  |  | 3.13 |  |  |  |  |  |
| C1,C5: unresolved mixture of CNBr fragments of rBPI23, residues 1-56 and 112-170 (protein, non-natural residues) chain 1: MRENMARGPCNAPRWVSLMVLVAIGTAVTAAVNPGVVVRISQKGLDYASQQGTAAL chain 2: SNANIKISGKWKAQKRFLKMSGNFDLSIEGMSISADLKLGSNPTSGKPTITCSSCSSHI |  |  |  |  |  |  |  |  |  |  |  |  |  |  | approximately 10 fold | ~100 | 82,918 ± 4,462 cpm |  |  |
| A6a: Asp-N fragment of rBPI23, residues 116-193 (protein) IKISGKWKAQKRFLKMSGNFDLSIEGMSISADLKLGSNPTSGKPTITCSSCSSHINSVHVHISKSKVGWLIQLFHKKI |  |  |  |  |  |  |  |  |  |  |  |  |  |  |  |  | 13,419 ± 309 cpm | LAL inhibitory activity similar to intact rBPI23 | 15 |
